{
  "source": "paper PMC8954547",
  "about": "“Nonpeptidic Z360-Analogs Tagged with Trivalent Radiometals as Anti-CCK2R Cancer Theranostic Agents: A Preclinical Study” (Pharmaceutics, 2022)",
  "key": {"[1]": {"tested_on": "SCID mice bearing twin HEK293-CCK2i4svR and wtHEK293 tumors", "assay": "Biodistribution in SCID mice bearing twin HEK293-CCK2i4svR and wtHEK293 xenografts", "type": "in vivo", "procedure,_shortened": "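Uptake is expressed as %IA/g (mean ± SD, n = 4) from gamma counting of blood, organs and tumours collected at set times: 1, 4 and 24 h pi for ^67Ga, 4 and 24 h for ^111In (±gelofusine), 4–96 h for ^177Lu. Radioligands were given iv at 7–40 pmol to SCID mice bearing twin CCK2i4svR-transfected and wild-type HEK293 xenografts.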"}, "HEK293-CCK2i4svR cells": {"tested_on": "HEK293-CCK2i4svR cells", "assay": "Radioligand uptake and internalization in HEK293-CCK2i4svR cells", "type": "cell-based, human", "method": "A day before the experiment, HEK293-CCK2i4svR cells were seeded in six-well plates. The next day, cells were rinsed with ice-cold internalization medium (IM: DMEM Glutamax-I, supplemented by 1% (v/v) FBS) and then the fresh medium was added (1.2 mL) at 37 °C. A further portion of IM (150 µL) was added in the upper well-row, and DG2 solution in IM (150 µL) was added in the lower row (to a final concentration of 1 μM; non-specific series). Each of the test radioligands, [^67Ga]Ga/[^111In]In/[^177Lu]Lu-GAS1/3 and [^67Ga]Ga/[^111In]In-GAS2, was finally added (250 fmol total conjugates in 150 μL 0.5% BSA-PBS) in all the wells and the plates were incubated at for 1 h at 37 °C in an Incubator-Orbital Shaker unit (MPM Instr. SrI, Bernareggio, MI, Italy); [^111In]In-GAS1/2/3 were incubated for 15 min, 30 min, 1 h and 2 h. At the predetermined time points, the plates were placed on ice, the medium was collected, and the plates were rinsed with 0.5% BSA-PBS (1 mL). Cells were subsequently treated with an acid-wash solution (2 × 600 µL; 50 mM glycine buffer pH 2.8, 0.1 M NaCl) and the fractions collected (membrane-bound). After briefly washing with 0.5% BSA-PBS (1 mL), the cells were lysed with 1 N NaOH (2 × 600 µL), and the fractions were collected (internalized). The radioactivity content of collected fractions was counted in the gamma counter, and the percentage of internalized and membrane-bound fractions per time point were calculated with Microsoft Excel. Specific internalized and membrane-bound counts were determined by subtracting the respective non-specific (in the presence of 1 μM DG2) from the respective total counts. Results represent specific internalized/membrane bound ± SD of total added radioactivity per well from three experiments performed in triplicate."}, "[2]": {"tested_on": "HEK293-CCK2i4svR and wtHEK293 xenografts", "assay": "SPECT/CT of HEK293-CCK2i4svR and wtHEK293 xenografts", "type": "in vivo, mice", "conditions": "4 h and 24 h pi", "method": "For SPECT/CT imaging, six mice bearing twin HEK293-CCK2i4svR and wtHEK293 tumors were injected in the tail vein with a bolus containing [^111In]In-GAS1/2/3 (100 μL, 9–12 MBq associated with 3 nmol total injected analog in-vehicle: saline/EtOH 9/1 v/v). Mice were euthanized at 4 h and 24 h pi. Tomographic SPECT/CT imaging was performed with the y-CUBE/x-CUBE systems (Molecubes, Belgium). The SPECT system is based on monolithic NaI detectors attached to SiPMs, with a 0.6 mm intrinsic resolution. The CT system is based on a structured CMOS detector of CsI with pixels of 75 µm and operates between 35–80 kVp, 10–500 µA tube current, with a 33 µm fixed focal spot size. SPECT scans were acquired 4 h pi and 24 h pi, with a 40–50 min duration protocol based on the injected activity, and each SPECT scan was succeeded by a CT scan, following General-Purpose protocol under 50 kVp, for co-registration purposes. SPECT images were reconstructed using the MLEM reconstruction method with a 250 µm voxel size and 500 iterations. CT images were reconstructed using the ISRA reconstruction method with a 100 µm voxel size.\nImages were exported and post-processed on VivoQuant software, version 4.0 (Invicro, Boston). A smoothing median filter (0.6 mm, spherical window) was applied to the images, and the bladder was removed for consistency purposes. Normalization of images was performed (i.e., all images having the same color scale range values) to achieve a direct visual comparison between the different groups."}},
  "data": [
    {"smiles": "CC(C)(C)C(=O)CN1C(=O)[C@H](NC(=O)Nc2cccc(C(=O)NCCOCCOCCOCCNC(=O)[C@@H](CCC(=O)O)NC(=O)CCC(C(=O)O)N3CCN(CC(=O)[O-])CCN(CC(=O)[O-])CCN(CC(=O)[O-])CC3)c2)CN(C2CCCCC2)c2ccccc21.[111In+3]", "note": "(stereo partly shown) [[^111In]In-GAS3]", "values": [
      {"measurement": "Biodistribution, Blood", "setting": "[1]; 4 h pi", "result": "2.42 ± 0.94", "unit": "%IA/g"},
      {"measurement": "Biodistribution, CCK2i4svR(+) Tumor", "setting": "[1]; 4 h pi", "result": "19.83 ± 1.35", "unit": "%IA/g"},
      {"measurement": "Biodistribution, CCK2i4svR(-) Tumor", "setting": "[1]; 4 h pi", "result": "0.85 ± 0.37", "unit": "%IA/g"},
      {"measurement": "Biodistribution, Femur", "setting": "[1]; 4 h pi", "result": "0.60 ± 0.14", "unit": "%IA/g"},
      {"measurement": "Biodistribution, Heart", "setting": "[1]; 4 h pi", "result": "0.81 ± 0.28", "unit": "%IA/g"},
      {"measurement": "Biodistribution, Intestines", "setting": "[1]; 4 h pi", "result": "1.66 ± 0.33", "unit": "%IA/g"},
      {"measurement": "Biodistribution, Kidneys", "setting": "[1]; 4 h pi", "result": "9.32 ± 0.68", "unit": "%IA/g"},
      {"measurement": "Biodistribution, Liver", "setting": "[1]; 4 h pi", "result": "2.78 ± 0.27", "unit": "%IA/g"},
      {"measurement": "Biodistribution, Lungs", "setting": "[1]; 4 h pi", "result": "1.36 ± 0.37", "unit": "%IA/g"},
      {"measurement": "Biodistribution, Muscle", "setting": "[1]; 4 h pi", "result": "0.31 ± 0.13", "unit": "%IA/g"},
      {"measurement": "Biodistribution, Pancreas", "setting": "[1]; 4 h pi", "result": "0.86 ± 0.23", "unit": "%IA/g"},
      {"measurement": "Biodistribution, Spleen", "setting": "[1]; 4 h pi", "result": "0.69 ± 0.12", "unit": "%IA/g"},
      {"measurement": "Biodistribution, Stomach", "setting": "[1]; 4 h pi", "result": "0.91 ± 0.39", "unit": "%IA/g"},
      {"measurement": "Biodistribution, Blood", "setting": "[1]; 24 h pi", "result": "0.08 ± 0.01", "unit": "%IA/g"},
      {"measurement": "Biodistribution, CCK2i4svR(+) Tumor", "setting": "[1]; 24 h pi", "result": "11.53 ± 1.93", "unit": "%IA/g"},
      {"measurement": "Biodistribution, CCK2i4svR(-) Tumor", "setting": "[1]; 24 h pi", "result": "0.40 ± 0.21", "unit": "%IA/g"},
      {"measurement": "Biodistribution, Femur", "setting": "[1]; 24 h pi", "result": "0.27 ± 0.09", "unit": "%IA/g"},
      {"measurement": "Biodistribution, Heart", "setting": "[1]; 24 h pi", "result": "0.16 ± 0.02", "unit": "%IA/g"},
      {"measurement": "Biodistribution, Intestines", "setting": "[1]; 24 h pi", "result": "0.48 ± 0.14", "unit": "%IA/g"},
      {"measurement": "Biodistribution, Kidneys", "setting": "[1]; 24 h pi", "result": "4.15 ± 1.06", "unit": "%IA/g"},
      {"measurement": "Biodistribution, Liver", "setting": "[1]; 24 h pi", "result": "1.07 ± 0.26", "unit": "%IA/g"},
      {"measurement": "Biodistribution, Muscle", "setting": "[1]; 24 h pi", "result": "0.08 ± 0.01", "unit": "%IA/g"},
      {"measurement": "Biodistribution, Pancreas", "setting": "[1]; 24 h pi", "result": "0.17 ± 0.04", "unit": "%IA/g"},
      {"measurement": "Biodistribution, Spleen", "setting": "[1]; 24 h pi", "result": "0.43 ± 0.09", "unit": "%IA/g"},
      {"measurement": "Biodistribution, Stomach", "setting": "[1]; 24 h pi", "result": "0.35 ± 0.21", "unit": "%IA/g"},
      {"measurement": "Background clearance / excretion route", "setting": "[1]; mouse, in vivo", "result": "predominantly cleared via the kidneys"},
      {"measurement": "Internalized to membrane-bound ratio", "setting": "HEK293-CCK2i4svR cells", "result": 4.1},
      {"measurement": "Internalized fraction", "setting": "HEK293-CCK2i4svR cells; 1 h 37 °C, specific", "result": "11.12 ± 0.79 % of total added activity"},
      {"measurement": "Cell uptake (internalized + membrane-bound)", "setting": "HEK293-CCK2i4svR cells; 1 h 37 °C, specific, of total added activity", "result": "13.81 ± 0.89", "unit": "%"},
      {"measurement": "SPECT/CT uptake in CCK2i4svR expressing tumors", "setting": "[2]", "result": "Intense uptake"},
      {"measurement": "SPECT/CT uptake in wtHEK293 tumors devoid of CCK2i4svR expression", "setting": "[2]", "result": "no uptake is evident"}
    ]}
  ]
}
